Columns and labels:
Assay type in all cases: in vivo
[1] = system: morningglory (Ipomoea coccinea); test: Test B pre-/postemergence plant response; conditions: for Morningglory plant response rating (0 to 100 scale): 62 g ai/ha, 0 is no effect, 13 to 15 days
How it was run: (§1)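 Greenhouse herbicide screen. Pre- and postemergence (1- to 4-leaf) spray of compound in solvent/surfactant mixture; loam–sand soil for pre, peat/vermiculite medium for post. Visual control rating 0–100 at 13 to 15 days after treatment.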

[2] = system: johnsongrass (Sorghum halepense); test: Test B pre-/postemergence plant response; conditions: for Johnsongrass plant response rating (0 to 100 scale): 62 g ai/ha, 0 is no effect, 13 to 15 days
How it was run: as §1

[3] = system: giant foxtail (Setaria faberii); test: Test B pre-/postemergence plant response; conditions: for Foxtail, Giant plant response rating (0 to 100 scale): 62 g ai/ha, 0 is no effect, 13 to 15 days
How it was run: as §1

[4] = system: goosegrass (Eleusine indica); test: Test B pre-/postemergence plant response; conditions: for Goosegrass plant response rating (0 to 100 scale): 62 g ai/ha, 0 is no effect, 13 to 15 days
How it was run: as §1

[5] = system: woolly cupgrass (Eriochloa villosa); test: Test B pre-/postemergence plant response; conditions: for Cupgrass, Woolly plant response rating (0 to 100 scale): 62 g ai/ha, 0 is no effect, 13 to 15 days
How it was run: as §1

[6] = system: wheat (Triticum aestivum); test: Test B pre-/postemergence plant response; conditions: for Wheat plant response rating (0 to 100 scale): 62 g ai/ha, postemergence, 0 is no effect, 100 is complete control, 13 to 15 days; for Plant response rating, Wheat: Postemergence, scale 0 to 100 (0 no effect, 100 complete control)
How it was run: as §1

rice (Oryza sativa) = test: Test B flooded paddy test; conditions: for Plant response rating, Flood, Rice: 250 g ai/ha, flooded paddy test, visual rating on 0 to 100 scale (0 no effect, 100 complete control) after 13 to 15 days; for Plant response rating, Rice: Flood (flooded paddy test), 13 to 15 days; for Rice plant response rating: Flood, 31 g ai/ha, scale 0 to 100 (0 no effect, 100 complete control)
How it was run: (§2)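 Each compound is added to standing floodwater (3 cm above soil, maintained) in pots of 2-leaf-stage plants; greenhouse exposure lasts 13–15 d before visual comparison with controls on a 0–100 control scale.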

[7] = system: barnyardgrass (Echinochloa crus-galli); test: Test B flooded paddy test; conditions: for Plant response rating, Flood, Barnyardgrass: 250 g ai/ha, flooded paddy test, visual rating on 0 to 100 scale (0 no effect, 100 complete control) after 13 to 15 days; for Plant response rating, Barnyardgrass: Flood (flooded paddy test), 13 to 15 days; for Barnyardgrass plant response rating: Flood, 31 g ai/ha, scale 0 to 100 (0 no effect, 100 complete control)
How it was run: as §2

[8] = system: ducksalad (Heteranthera limosa); test: Test B flooded paddy test; conditions: for Plant response rating, Flood, Ducksalad: 250 g ai/ha, flooded paddy test, visual rating on 0 to 100 scale (0 no effect, 100 complete control) after 13 to 15 days; for Plant response rating, Ducksalad: Flood (flooded paddy test), 13 to 15 days; for Ducksalad plant response rating: Flood, 31 g ai/ha, scale 0 to 100 (0 no effect, 100 complete control)
How it was run: as §2

[9] = system: umbrella sedge (Cyperus difformis); test: Test B flooded paddy test; conditions: for Plant response rating, Flood, Sedge, Umbrella: 250 g ai/ha, flooded paddy test, visual rating on 0 to 100 scale (0 no effect, 100 complete control) after 13 to 15 days; for Plant response rating, Sedge, Umbrella: Flood (flooded paddy test), 13 to 15 days; for Sedge, Umbrella plant response rating: Flood, 31 g ai/ha, scale 0 to 100 (0 no effect, 100 complete control)
How it was run: as §2

[10] = system: pigweed (Amaranthus retroflexus); test: Test A pre-/postemergence plant response
How it was run: (§3)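 Visually rated 0–100 injury (100 = complete control) versus untreated plants, ~10 days in greenhouse. Application pre- (soil spray, loam/sand) and postemergence (2–10 cm, 1–2 leaf stage), same timepoint.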

[11] = system: morningglory (Ipomoea spp.); test: Test A pre-/postemergence plant response
How it was run: as §3

[12] = 31 g ai/ha, postemergence, scale 0 to 100, 0 is no effect, 100 is complete control
[13] = postemergence, 100 is complete control
[14] = Postemergence, 125 g ai/ha, scale 0 to 100 (0 no effect, 100 complete control)
[15] = Postemergence, 250 g ai/ha, scale 0 to 100 (0 no effect, 100 complete control)
[16] = 62 g ai/ha, scale of 0 to 100 where 0 is no effect and 100 is complete control
[17] = 125 g ai/ha, scale 0 to 100, 0 is no effect, 100 is complete control
[18] = Postemergence, 125 g ai/ha, 0 to 100 scale where 0 is no effect and 100 is complete control
[19] = Postemergence, 500 g ai/ha, 0 to 100 scale, 0 = no effect, 100 = complete control, approx. ten days
[20] = Preemergence, 125 g ai/ha, 0 to 100 scale, 0 = no effect, 100 = complete control
[21] = Preemergence, 500 g ai/ha, visual injury, 0 to 100 scale (0 no effect, 100 complete control), approx. ten days

O=C1CCCC(O)=C1C(=O)c1cnc(-c2ccsc2)n(CC2CCCO2)c1=O (stereo not drawn) [Compound 98]
Plant response rating, Morningglory [1, 12]: 70 | Morningglory plant response rating (0 to 100 scale) [1, 13]: 85 | Plant response rating, Morningglory [1, 14]: 100 | Plant response rating, Morningglory [1, 15]: 100 | Plant response rating, Johnsongrass [2, 12]: 55 | Johnsongrass plant response rating (0 to 100 scale) [2, 13]: 70 | Plant response rating, Johnsongrass [2, 14]: 75 | Plant response rating, Johnsongrass [2, 15]: 98 | Plant response rating, Foxtail, Giant [3, 12]: 65 | Foxtail, Giant plant response rating (0 to 100 scale) [3, 13]: 75 | Plant response rating, Foxtail, Giant [3, 14]: 85 | Plant response rating, Foxtail, Giant [3, 15]: 85 | Plant response rating, Goosegrass [4, 12]: 60 | Goosegrass plant response rating (0 to 100 scale) [4, 13]: 75 | Plant response rating, Goosegrass [4, 14]: 80 | Plant response rating, Goosegrass [4, 15]: 90 | Plant response rating, Cupgrass, Woolly [5, 12]: 65 | Cupgrass, Woolly plant response rating (0 to 100 scale) [5, 13]: 70 | Plant response rating, Cupgrass, Woolly [5, 14]: 75 | Plant response rating, Cupgrass, Woolly [5, 15]: 95 | Wheat plant response rating (0 to 100 scale) [6]: 5 | Plant response rating, Wheat ([6]; 125 g ai/ha): 5 | Plant response rating, Wheat ([6]; 250 g ai/ha): 20 | Plant response rating, Flood, Rice (rice (Oryza sativa)): 40 | Plant response rating, Rice (rice (Oryza sativa); [16]): 0 | Plant response rating, Rice (rice (Oryza sativa); [17]): 0 | Rice plant response rating (rice (Oryza sativa)): 0 | Plant response rating, Flood, Barnyardgrass [7]: 50 | Plant response rating, Barnyardgrass [7, 16]: 30 | Plant response rating, Barnyardgrass [7, 17]: 30 | Barnyardgrass plant response rating [7]: 0 | Plant response rating, Flood, Ducksalad [8]: 0 | Plant response rating, Ducksalad [8, 16]: 0 | Plant response rating, Ducksalad [8, 17]: 0 | Ducksalad plant response rating [8]: 0 | Plant response rating, Flood, Sedge, Umbrella [9]: 75 | Plant response rating, Sedge, Umbrella [9, 16]: 65 | Plant response rating, Sedge, Umbrella [9, 17]: 75 | Sedge, Umbrella plant response rating [9]: 40 | Plant response rating, Pigweed [10, 18]: 100 | Plant response rating, Pigweed [10, 19]: 100 | Plant response rating, Pigweed [10, 20]: 100 | Plant response rating, Pigweed [10, 21]: 100 | Plant response rating, Morningglory [11, 18]: 100 | Plant response rating, Morningglory [11, 19]: 100 | Plant response rating, Morningglory [11, 20]: 70 | Plant response rating, Morningglory [11, 21]: 80

O=C1CCCC(O)=C1C(=O)c1cnc(-c2ccsc2)n(C2CCCCC2)c1=O [Compound 99]
Plant response rating, Morningglory [1, 12]: 100 | Morningglory plant response rating (0 to 100 scale) [1, 13]: 100 | Plant response rating, Morningglory [1, 14]: 100 | Plant response rating, Morningglory [1, 15]: 100 | Plant response rating, Johnsongrass [2, 12]: 70 | Johnsongrass plant response rating (0 to 100 scale) [2, 13]: 75 | Plant response rating, Johnsongrass [2, 14]: 80 | Plant response rating, Johnsongrass [2, 15]: 95 | Plant response rating, Foxtail, Giant [3, 12]: 75 | Foxtail, Giant plant response rating (0 to 100 scale) [3, 13]: 80 | Plant response rating, Foxtail, Giant [3, 14]: 95 | Plant response rating, Foxtail, Giant [3, 15]: 95 | Plant response rating, Goosegrass [4, 12]: 75 | Goosegrass plant response rating (0 to 100 scale) [4, 13]: 75 | Plant response rating, Goosegrass [4, 14]: 75 | Plant response rating, Goosegrass [4, 15]: 80 | Plant response rating, Cupgrass, Woolly [5, 12]: 70 | Cupgrass, Woolly plant response rating (0 to 100 scale) [5, 13]: 75 | Plant response rating, Cupgrass, Woolly [5, 14]: 80 | Plant response rating, Cupgrass, Woolly [5, 15]: 85 | Wheat plant response rating (0 to 100 scale) [6]: 5 | Plant response rating, Wheat ([6]; 125 g ai/ha): 5 | Plant response rating, Wheat ([6]; 250 g ai/ha): 5 | Plant response rating, Flood, Rice (rice (Oryza sativa)): 60 | Plant response rating, Rice (rice (Oryza sativa); [16]): 0 | Plant response rating, Rice (rice (Oryza sativa); [17]): 0 | Rice plant response rating (rice (Oryza sativa)): 0 | Plant response rating, Flood, Barnyardgrass [7]: 55 | Plant response rating, Barnyardgrass [7, 16]: 20 | Plant response rating, Barnyardgrass [7, 17]: 20 | Barnyardgrass plant response rating [7]: 0 | Plant response rating, Flood, Ducksalad [8]: 80 | Plant response rating, Ducksalad [8, 16]: 40 | Plant response rating, Ducksalad [8, 17]: 75 | Ducksalad plant response rating [8]: 30 | Plant response rating, Flood, Sedge, Umbrella [9]: 85 | Plant response rating, Sedge, Umbrella [9, 16]: 50 | Plant response rating, Sedge, Umbrella [9, 17]: 65 | Sedge, Umbrella plant response rating [9]: 50 | Plant response rating, Pigweed [10, 18]: 100 | Plant response rating, Pigweed [10, 19]: 100 | Plant response rating, Pigweed [10, 20]: 90 | Plant response rating, Pigweed [10, 21]: 100 | Plant response rating, Morningglory [11, 18]: 100 | Plant response rating, Morningglory [11, 19]: 100 | Plant response rating, Morningglory [11, 21]: 80

Source: patent publication US8952024B2, “Herbicidal pyrimidone derivatives” (E I du Pont de Nemours and Company, priority 2009, dated 2015)
